NCCCCCC(=O)O
solubility (mole fraction) (in ethyl acetate, 283.15 K): 0.000146
solubility (mole fraction) (in ethyl acetate, 288.15 K): 0.00016
solubility (mole fraction) (in ethyl acetate, 293.15 K): 0.000174
solubility (mole fraction) (in ethyl acetate, 298.15 K): 0.000188
solubility (mole fraction) (in ethyl acetate, 303.15 K): 0.0002
solubility (mole fraction) (in ethyl acetate, 308.15 K): 0.000221
solubility (mole fraction) (in ethyl acetate, 313.15 K): 0.000241
solubility (mole fraction) (in ethyl acetate, 318.15 K): 0.000262
solubility (mole fraction) (in ethyl acetate, 323.15 K): 0.000289
solubility (mole fraction) (in isopropanol, 283.15 K): 7.7e-05
solubility (mole fraction) (in isopropanol, 288.15 K): 8.1e-05
solubility (mole fraction) (in isopropanol, 293.15 K): 9.2e-05
solubility (mole fraction) (in isopropanol, 298.15 K): 0.000108
solubility (mole fraction) (in isopropanol, 303.15 K): 0.000123
solubility (mole fraction) (in isopropanol, 308.15 K): 0.000142
solubility (mole fraction) (in isopropanol, 313.15 K): 0.000162
solubility (mole fraction) (in isopropanol, 318.15 K): 0.000181
solubility (mole fraction) (in isopropanol, 323.15 K): 0.0002
solubility (mole fraction) (in methyl acetate, 283.15 K): 0.000119
solubility (mole fraction) (in methyl acetate, 288.15 K): 0.000129
solubility (mole fraction) (in methyl acetate, 293.15 K): 0.00014
solubility (mole fraction) (in methyl acetate, 298.15 K): 0.000146
solubility (mole fraction) (in methyl acetate, 303.15 K): 0.000154
solubility (mole fraction) (in methyl acetate, 308.15 K): 0.000161
solubility (mole fraction) (in methyl acetate, 313.15 K): 0.000166
solubility (mole fraction) (in methyl acetate, 318.15 K): 0.00017
solubility (mole fraction) (in methyl acetate, 323.15 K): 0.000172
solubility (mole fraction) (in water, 283.15 K): 0.118
solubility (mole fraction) (in water, 288.15 K): 0.126
solubility (mole fraction) (in water, 293.15 K): 0.13
solubility (mole fraction) (in water, 298.15 K): 0.137
solubility (mole fraction) (in water, 303.15 K): 0.145
solubility (mole fraction) (in water, 308.15 K): 0.152
solubility (mole fraction) (in water, 313.15 K): 0.155
solubility (mole fraction) (in water, 318.15 K): 0.16
solubility (mole fraction) (in water, 323.15 K): 0.167
